Experiments:
MCF-7 cells = experiment: Cytotoxic activity, WST-1 assay, breast cancer MCF-7; format: cell-based, human; details: for SI (IC50 HFF-1/IC50 cancer line) MCF-7: HFF-1 vs MCF-7; for IC50: Homo sapiens, MCF7, breast cancer MCF-7, 72 h, WST-1
Source text: (§1) Anticancer activity of compounds 11–14 was designated against following human cancer cell lines: melanoma (Colo-829), ovarian cancer (SK-OV-3), breast cancer (MDA-MB-231, T47D and MCF-7), lung cancer (A549) and normal fibroblasts (HFF-1). As a reference substance, the doxorubicin was used. The results are presented in Table 1 as IC50, where IC50 means the concentration of tested compounds (µM) causing the growth inhibition of 50% for given tumor cells. The negative value (Neg.) means that the IC50 is higher than 30 µM. Selectivity index (SI) as the ratio of the IC50 for normal fibroblast (HFF-1) to IC50 of the corresponding cell line, is presented in Table S2.
(§2) Compounds 7–14 and doxorubicin were tested for cytotoxic activity in vitro against panel of human cancer cell lines: melanoma (Colo-829, ATCC, Rockville, MD, USA), ovarian cancer (SK-OV-3, ATCC, Rockville, MD, USA), breast cancer (T47D, MCF-7, and MDA-MB-231, ATCC, Rockville, MD, USA) and lung cancer (A549, ATCC, Rockville, MD, USA). The cultured cells were kept at 37 °C and 5% CO2. The cells were seeded (5 × 10^4 cells/well/[…] DMEM supplemented with 10% FCS and streptomycin/penicillin) using 96-well plates (Nunc Thermo Fisher Scientific, Waltham, MA, USA). The tested compounds 7–14 with the concentration of 1–100 µg/mL DMSO were inducted with the cancer cells for 72 h. The WST-1-formazan (proliferation reagent WST-1 assay, Roche Diagnostics, Mannheim, Germany) was detected using a microplate reader at 450 nm. Results were expressed as a mean value of at least three independent experiments performed in triplicate.

T47D cells = experiment: Cytotoxic activity, WST-1 assay, breast cancer T47D; format: cell-based, human; details: for SI (IC50 HFF-1/IC50 cancer line) T47D: HFF-1 vs T47D; for IC50: Homo sapiens, breast cancer T47D, 72 h, WST-1
Source text: as §1, §2

SK-OV-3 cells = experiment: Cytotoxic activity, WST-1 assay, ovarian cancer SK-OV-3; format: cell-based, human; details: for SI (IC50 HFF-1/IC50 cancer line) SK-OV-3: HFF-1 vs SK-OV-3; for IC50: Homo sapiens, ovarian cancer SK-OV-3, 72 h, WST-1
Source text: as §1, §2

MDA-MB-231 cells = experiment: Cytotoxic activity, WST-1 assay, breast cancer MDA-MB-231; format: cell-based, human; details: for SI (IC50 HFF-1/IC50 cancer line) MDA-MB-231: HFF-1 vs MDA-MB-231; for IC50: Homo sapiens, breast cancer MDA-MB-231, 72 h, WST-1
Source text: as §1, §2

[1] = target: T1, NQO1 (DT-diaphorase, EC 1.6.5.5, human recombinant) (Homo sapiens, UniProt P15559); experiment: NQO1 substrate NADPH recycling enzymatic assay; format: biochemical; details: for NQO1 activity (enzymatic conversion rate): compound 10 µmol/L, pH 7.4, 25 °C, absorbance at 340 nm
T1 construct: purchased Sigma-Aldrich
Experimental: The interaction between 1,4-quinone moiety of hybrid and NQO1 protein leads to reduction in quinone to hydroquinone and production of reactive oxide form (ROS). According to a literature method, the ability of hybrids 11–14 and streptonigrin (ST) to be a substrate for NQO1 was examined by measuring the oxidation of NADPH to NADP^+ [29, 32].
Compounds 11–14 (10 µmol/L) were tested as NQO1 substrates using the NADPH recycling assay according to the literature method. The recombinant NQO1 (DT-diaphorase, EC 1.6.5.5, human recombinant, Sigma-Aldrich) was used, and the oxidation of NADPH to NADP^+ was measured at the absorption wavelength of 340 nm on the BioTek 800TS microplate reader (BioKom, Janki, Poland). Compounds were dissolved in dimethyl sulfoxide (2 µL) and added to the 96-well plate. The NQO1 protein (1.4 µg/mL) in 50 mmol/L potassium phosphate buffer (pH = 7.4) was added to each well (198 µL) (Nunc Thermo Fisher Scientific, Waltham, MA, USA). Once the 96-well plate was filled with the assay solutions, except the NADPH solution, it was placed into the instrument and left to sit for 5 min before starting the measurements. The enzymatic reaction was initiated by automatically dispensing the NADPH solution into the wells, and data were recorded at 10 s intervals for 5 min at 25 °C. The linear part of the absorbance vs. time graphs (the first 20 s to 1 min) was fitted, and the slopes were calculated. NADPH oxidation rates were compared with reactions lacking the tested compound. Initial velocities were calculated, and data were expressed as µmol NADPH/µmol NQO1/min. All reactions were carried out at least in triplicate.

HFF-1 cells = experiment: Cytotoxic activity, WST-1 assay, normal fibroblasts HFF-1; format: cell-based; details: Homo sapiens, normal fibroblasts HFF-1, 72 h
Source text: as §1, §2

Colo-829 cells = experiment: Cytotoxic activity, WST-1 assay, melanoma Colo-829; format: cell-based, human; details: for SI (IC50 HFF-1/IC50 cancer line) Colo-829: HFF-1 vs Colo-829; for IC50: Homo sapiens, melanoma Colo-829, 72 h, WST-1
Source text: as §1, §2

A549 cells = experiment: Cytotoxic activity, WST-1 assay, lung cancer A549; format: cell-based, human; details: for SI (IC50 HFF-1/IC50 cancer line) A549: HFF-1 vs A549; for IC50: Homo sapiens, lung cancer A549, 72 h, WST-1
Source text: as §1, §2

T1 sequence (P15559 whole entry): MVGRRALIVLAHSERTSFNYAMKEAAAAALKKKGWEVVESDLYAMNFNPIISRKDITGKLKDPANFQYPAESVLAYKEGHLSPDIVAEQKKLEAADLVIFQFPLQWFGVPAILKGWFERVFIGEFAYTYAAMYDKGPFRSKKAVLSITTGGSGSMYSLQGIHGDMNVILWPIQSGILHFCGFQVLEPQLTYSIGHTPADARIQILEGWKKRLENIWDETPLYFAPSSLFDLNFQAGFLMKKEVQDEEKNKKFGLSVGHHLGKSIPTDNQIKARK

Row | Structure (SMILES) | SI (IC50 HFF-1/IC50 cancer line) MCF-7 (MCF-7 cells) | IC50 (MCF-7 cells) | SI (IC50 HFF-1/IC50 cancer line) T47D (T47D cells) | IC50 (T47D cells) | SI (IC50 HFF-1/IC50 cancer line) SK-OV-3 (SK-OV-3 cells) | IC50 (SK-OV-3 cells) | SI (IC50 HFF-1/IC50 cancer line) MDA-MB-231 (MDA-MB-231 cells) | IC50 (MDA-MB-231 cells) | NQO1 activity (enzymatic conversion rate) [1] | Enzymatic conversion rate relative to streptonigrin ([1]; fold higher than streptonigrin) | IC50 (HFF-1 cells) | SI (IC50 HFF-1/IC50 cancer line) Colo-829 (Colo-829 cells) | IC50 (Colo-829 cells) | SI (IC50 HFF-1/IC50 cancer line) A549 (A549 cells) | IC50 (A549 cells) | melting point
1 | O=C1C(Cl)=C(Oc2cccc3cccnc23)C(=O)c2ncccc21 [Compound 11a, 6-chloro-7-(quinolin-8-yloxy)quinoline-5,8-dione] | 0.53 | 19.4 ± 0.37 µM | 0.55 | 18.7 ± 0.71 µM | 6.59 | 1.55 ± 0.2 µM | 0.89 | 11.5 ± 0.19 µM | 1399 ± 26 µmol NADPH/µmol NQO1/min | about 2 times | 10.2 ± 0.16 µM | 0.55 | 18.5 ± 1.31 µM | 6.08 | 1.68 ± 0.05 µM | 112 to 114 °C
2 | O=Cc1ccc2cccc(OC3=C(Cl)C(=O)c4cccnc4C3=O)c2n1 [Compound 11c, 8-[(6-chloro-5,8-dioxo-5,8-dihydroquinolin-7-yl)oxy]quinoline-2-carbaldehyde] | 0.57 | 18.3 ± 1.23 µM | 0.47 | 22.2 ± 0.66 µM | 5.91 | 1.78 ± 0.31 µM | 0.73 | 14.3 ± 2.01 µM | 1100 ± 35 µmol NADPH/µmol NQO1/min | – | 10.5 ± 0.87 µM | 0.90 | 11.7 ± 1.36 µM | 7.26 | 1.45 ± 0.13 µM | 168 to 170 °C
3 | O=C1C(Cl)=C(Oc2cccc3ccc(Cl)nc23)C(=O)c2ncccc21 [Compound 11d, 6-chloro-7-[(2-chloroquinolin-8-yl)oxy]quinoline-5,8-dione] | 6.51 | 2.11 ± 0.09 µM | 6.54 | 2.1 ± 0.11 µM | 8.81 | 1.56 ± 0.11 µM | 6.77 | 2.03 ± 0.05 µM | 800 ± 64 µmol NADPH/µmol NQO1/min | – | 13.7 ± 1.27 µM | 9.48 | 1.45 ± 0.24 µM | 8.04 | 1.71 ± 0.03 µM | 123 to 125 °C
4 | Cc1ccc2c(n1)C(=O)C(Oc1cccc3cccnc13)=C(Cl)C2=O [Compound 12a, 6-chloro-2-methyl-7-(quinolin-8-yloxy)quinoline-5,8-dione] | 8.30 | 2.09 ± 0.02 µM | 10.91 | 1.59 ± 0.15 µM | 346.80 | 0.05 ± 0.02 µM | 8.80 | 1.97 ± 0.15 µM | 1505 ± 54 µmol NADPH/µmol NQO1/min | – | 17.3 ± 0.89 µM | 11.41 | 1.52 ± 0.35 µM | 20.40 | 0.85 ± 0.04 µM | 115 to 117 °C
5 | Cc1ccc2c(n1)C(=O)C(Oc1cccc3ccc(C=O)nc13)=C(Cl)C2=O [Compound 12c, 8-[(6-chloro-2-methyl-5,8-dioxo-5,8-dihydroquinolin-7-yl)oxy]quinoline-2-carbaldehyde] | 0.94 | 19.1 ± 0.95 µM | 0.77 | 23.3 ± 1.12 µM | 8.28 | 2.16 ± 0.19 µM | 0.85 | 21.12 ± 0.11 µM | 470 ± 22 µmol NADPH/µmol NQO1/min | – | 17.9 ± 1.37 µM | 1.23 | 14.6 ± 0.51 µM | 5.70 | 3.14 ± 0.43 µM | 184 to 186 °C
6 | Cc1ccc2c(n1)C(=O)C(Oc1cccc3ccc(Cl)nc13)=C(Cl)C2=O [Compound 12d, 6-chloro-2-methyl-7-[(2-chloroquinolin-8-yl)oxy]quinoline-5,8-dione] | 0.59 | 17.4 ± 0.82 µM | 0.64 | 16.2 ± 0.98 µM | 0.67 | 15.4 ± 0.48 µM | 0.66 | 15.6 ± 0.79 µM | 890 ± 21 µmol NADPH/µmol NQO1/min | – | 10.3 ± 1.65 µM | 0.78 | 13.1 ± 0.49 µM | 7.04 | 1.46 ± 0.06 µM | 120 to 122 °C
7 | O=C1C(Cl)=C(Oc2cccc3ccc(N4CCCC4)nc23)C(=O)c2cnccc21 [Compound 13e, 6-chloro-7-{[2-(pyrrolidin-1-yl)quinolin-8-yl]oxy}isoquinoline-5,8-dione] | 0.92 | 16.9 ± 0.5 µM | – | > 30 µM | 0.98 | 15.8 ± 0.26 µM | 0.93 | 16.6 ± 0.38 µM | 214 ± 21 µmol NADPH/µmol NQO1/min | – | 15.5 ± 0.72 µM | 0.79 | 19.6 ± 1.32 µM | 1.11 | 14 ± 0.26 µM | –
8 | O=C1C(Cl)=C(Oc2cccc3ccc(N4CCOCC4)nc23)C(=O)c2cnccc21 [Compound 13f, 6-chloro-7-{[2-(morpholin-4-yl)quinolin-8-yl]oxy}isoquinoline-5,8-dione] | 17.85 | 1.03 ± 0.19 µM | 8.55 | 2.15 ± 0.06 µM | 14.95 | 1.23 ± 0.08 µM | 141.46 | 0.13 ± 0.05 µM | 143 ± 26 µmol NADPH/µmol NQO1/min | – | 18.4 ± 0.35 µM | 8.76 | 2.1 ± 0.06 µM | 15.07 | 1.22 ± 0.08 µM | –
9 | O=C1C(Cl)=C(Oc2cccc3ccc(N4CCCC4)nc23)C(=O)c2ccccc21 [Compound 14e, 2-chloro-3-{[2-(pyrrolidin-1-yl)quinolin-8-yl]oxy}naphthalene-1,4-dione] | 0.78 | 24.05 ± 0.21 µM | – | > 30 µM | 1.17 | 15.9 ± 0.22 µM | 2.43 | 7.66 ± 1.12 µM | 354 ± 22 µmol NADPH/µmol NQO1/min | – | 18.7 ± 1.36 µM | 0.85 | 22 ± 0.6 µM | 0.84 | 22.1 ± 0.89 µM | –
10 | O=C1C(Cl)=C(Oc2cccc3ccc(N4CCOCC4)nc23)C(=O)c2ccccc21 [Compound 14f, 2-chloro-3-{[2-(morpholin-4-yl)quinolin-8-yl]oxy}naphthalene-1,4-dione] | – | 17.4 ± 1.02 µM | – | > 30 µM | – | 14.2 ± 0.76 µM | – | 2.35 ± 0.09 µM | 87 ± 15 µmol NADPH/µmol NQO1/min | – | 20.3 ± 0.87 µM | – | 11.3 ± 1.97 µM | – | 14 ± 0.86 µM | –

Reference: PMC9572083, “Hybrids of 1,4-Quinone with Quinoline Derivatives: Synthesis, Biological Activity, and Molecular Docking with DT-Diaphorase (NQO1)” (Molecules, 2022)
